Assay [1] deals with T1, GPR40 (Homo sapiens, UniProt O14842). The assay is described as follows: Inositol phosphate accumulation assay (A9_GPR40 cells). The class given is cell-based. Also noted: expressed in transfected cells; host or cells: CHO cells stably transfected with GPR40 and aequorin. The settings on record: inositol phosphate assay, A9_GPR40 cells, 1 hour; read-out: IP3 EC50. The essentials:
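A9 cells stably expressing GPR40 were labelled 16 h with 1 μCi/mL ^3H-inositol in inositol-free DMEM with dialysed FBS. Compounds in HBSS/10 mM LiCl with HSA were applied for 1 h at 37° C, then quenched with 20 mM formic acid. Accumulated [^3H] inositol phosphates were counted by SPA.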

For assay [2], the target named is T1, GPR40. The assay is described as follows: Cell-based aequorin assay (CHO cells stably expressing GPR40 and aequorin). Also on record: expressed in transfected cells; host or cells: CHO cells stably transfected with GPR40 and aequorin. Conditions: activation of human GPR40, CHO cells, 0.01% HSA. The essentials:
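CHO cells stably co-expressing GPR40 and aequorin, loaded with coelenterazine (1 ug/mL, 2 h, room temperature) in H/HBSS with 20 mM Hepes and 0.01% fatty acid-free HSA. Serially diluted compounds added; luminescence recorded over 20 s. EC50 from dose-response of maximum relative light units.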

The EC50 is the concentration needed to bring the measured effect to its halfway point.

Each structure is given as a SMILES string.

T1 sequence (O14842 whole entry): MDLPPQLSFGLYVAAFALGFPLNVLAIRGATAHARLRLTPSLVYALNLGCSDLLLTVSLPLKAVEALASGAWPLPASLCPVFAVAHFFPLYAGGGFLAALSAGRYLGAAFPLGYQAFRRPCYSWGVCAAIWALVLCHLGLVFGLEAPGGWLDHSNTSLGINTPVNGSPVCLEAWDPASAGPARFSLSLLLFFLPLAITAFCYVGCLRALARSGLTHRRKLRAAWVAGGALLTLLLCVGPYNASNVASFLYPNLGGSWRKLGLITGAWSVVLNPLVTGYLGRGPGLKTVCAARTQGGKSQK

In the case of `COc1ccc(F)c(-c2ccc(COc3cccc(C(CC(=O)O)CC4CC4)c3)cc2C2=CCCC2(C)C)c1` (single isomer, unassigned) [Example 69.6, (3R)-4-Cyclopropyl-3-(3-(((2-(5,5-dimethyl-1-cyclopenten-1-yl)-2′-fluoro-5′-(methyloxy)-1,1′-biphenyl-4-yl)methyl)oxy)phenyl)butanoic acid or (3S)-4-cyclopropyl-3-(3-(((2-(5,5-dimethyl-1-cyclopenten-1-yl)-2′-fluoro-5′-(methyloxy)-1,1′-biphenyl-4-yl)methyl)oxy)phenyl)butanoic acid], the EC50 lay in the range of 10 to 100 nM at GPR40 [1] and 100 to 1000 nM on GPR40 [2].
The like results for `COc1cccc(-c2ccc(COc3cccc(C(CC(=O)O)CC4CC4)c3)cc2C2CCCC2(C)C)c1` (single isomer, unassigned) [Example 69.10] were, in that order, below 10 nM and 10 to 100 nM.
With `COc1cccc(-c2ccc(COc3cccc(C(CC(=O)O)CC4CC4)c3)cc2C2CCCCCC2)c1` (single isomer, unassigned) [Example 69.11, (3R)-3-(3-(((2-Cycloheptyl-3′-(methyloxy)-1,1′-biphenyl-4-yl)methyl)oxy)phenyl)-4-cyclopropylbutanoic acid or (3S)-3-(3-(((2-cycloheptyl-3′-(methyloxy)-1,1′-biphenyl-4-yl)methyl)oxy)phenyl)-4-cyclopropylbutanoic acid], the EC50 fell in the range of 10 to 100 nM at GPR40 [1] and 100 to 1000 nM at GPR40 [2].
In the case of `COc1ccc(F)c(-c2ccc(COc3cccc([C@@H](CC(=O)O)CC4CC4)c3)cc2C(C)C(C)C)c1` (single isomer, unassigned) [Example 69.12, (3R)-4-Cyclopropyl-3-(3-(((2-(1,2-dimethylpropyl)-2′-fluoro-5′-(methyloxy)-1,1′-biphenyl-4-yl)methyl)oxy)phenyl)butanoic acid or (3S)-4-cyclopropyl-3-(3-(((2-(1,2-dimethylpropyl)-2′-fluoro-5′-(methyloxy)-1,1′-biphenyl-4-yl)methyl)oxy)phenyl)butanoic acid], the EC50 is below 10 nM on GPR40 [1] and 100 to 1000 nM at GPR40 [2].
In the case of `COc1ccc(F)c(-c2ccc(COc3cccc(C(CC(=O)O)CC4CC4)c3)cc2C2CCCCCCC2)c1` (single isomer, unassigned) [Example 69.13, (3R)-3-(3-(((2-Cyclooctyl-2′-fluoro-5′-(methyloxy)-1,1′-biphenyl-4-yl)methyl)oxy)phenyl)-4-cyclopropylbutanoic acid or (3S)-3-(3-(((2-cyclooctyl-2′-fluoro-5′-(methyloxy)-1,1′-biphenyl-4-yl)methyl)oxy)phenyl)-4-cyclopropylbutanoic acid], the figures for the EC50 at GPR40 [1] and at GPR40 [2] were below 10 nM and 100 to 1000 nM, respectively.
Regarding `COc1ccc(F)c(-c2ccc(COc3cccc([C@@H](CC(=O)O)CC4CC4)c3)cc2C(O)C(C)(C)C)c1` (single isomer, unassigned) [Example 69.14, (3R)-4-Cyclopropyl-3-(3-(((2′-fluoro-2-(1-hydroxy-2,2-dimethylpropyl)-5′-(methyloxy)-1,1′-biphenyl-4-yl)methyl)oxy)phenyl)butanoic acid or (3S)-4-cyclopropyl-3-(3-(((2′-fluoro-2-(1-hydroxy-2,2-dimethylpropyl)-5′-(methyloxy)-1,1′-biphenyl-4-yl)methyl)oxy)phenyl)butanoic acid], the EC50 at GPR40 [1] and at GPR40 [2] was 100 to 1000 nM throughout.
For `C=C(c1cc(COc2cccc([C@@H](CC(=O)O)CC3CC3)c2)ccc1-c1cc(OC)ccc1F)C(C)(C)C` (single isomer, unassigned) [Example 69.15, (3R)-4-Cyclopropyl-3-(3-(((2-(1-(1,1-dimethylethyl)ethenyl)-2′-fluoro-5′-(methyloxy)-1,1′-biphenyl-4-yl)methyl)oxy)phenyl)butanoic acid or (3S)-4-cyclopropyl-3-(3-(((2-(1-(1,1-dimethylethyl)ethenyl)-2′-fluoro-5′-(methyloxy)-1,1′-biphenyl-4-yl)methyl)oxy)phenyl)butanoic acid], the EC50 on GPR40 [1] is 10 to 100 nM; on GPR40 [2], 100 to 1000 nM.
Consider `COc1ccc(F)c(-c2ccc(COc3cccc([C@@H](CC(=O)O)CC4CC4)c3)cc2CC(C)(C)C)c1` (single isomer, unassigned) [Example 69.16, (3R)-4-Cyclopropyl-3-(3-(((2-(2,2-dimethylpropyl)-2′-fluoro-5′-(methyloxy)-1,1′-biphenyl-4-yl)methyl)oxy)phenyl)butanoic acid or (3S)-4-cyclopropyl-3-(3-(((2-(2,2-dimethylpropyl)-2′-fluoro-5′-(methyloxy)-1,1′-biphenyl-4-yl)methyl)oxy)phenyl)butanoic acid], for which the 50% effective concentration (EC50) on GPR40 [1] and at GPR40 [2] was 10 to 100 nM in each case.
Consider `COc1ccc(F)c(-c2ccc(COc3cccc([C@@H](CC(=O)O)CC4CC4)c3)cc2C(F)C(C)(C)C)c1` (single isomer, unassigned) [Example 69.17, (3R)-4-cyclopropyl-3-(3-(((2′-fluoro-2-(1-fluoro-2,2-dimethylpropyl)-5′-(methyloxy)-1,1′-biphenyl-4-yl)methyl)oxy)phenyl)butanoic acid or (3S)-4-cyclopropyl-3-(3-(((2′-fluoro-2-(1-fluoro-2,2-dimethylpropyl)-5′-(methyloxy)-1,1′-biphenyl-4-yl)methyl)oxy)phenyl)butanoic acid], for which the EC50 at GPR40 [1] was below 10 nM; on GPR40 [2], 100 to 1000 nM.
The like results for `COc1ccc(F)c(-c2ccc(COc3cccc([C@@H](CC(=O)O)CC4CC4)c3)cc2C(OC)C(C)(C)C)c1` (single isomer, unassigned) [Example 69.18, (3R)-4-Cyclopropyl-3-(3-(((2-(2,2-dimethyl-1-(methyloxy)propyl)-2′-fluoro-5′-(methyloxy)-1,1′-biphenyl-4-yl)methyl)oxy)phenyl)butanoic acid or (3S)-4-cyclopropyl-3-(3-(((2-(2,2-dimethyl-1-(methyloxy)propyl)-2′-fluoro-5′-(methyloxy)-1,1′-biphenyl-4-yl)methyl)oxy)phenyl)butanoic acid] were, in that order, below 10 nM and 100 to 1000 nM.
On to `COc1ccc(F)c(-c2ccc(COc3cccc([C@@H](CC(=O)O)CC4CC4)c3)cc2C(O)(C(C)C)C(C)C)c1` (single isomer, unassigned) [Example 69.19, (3R)-4-Cyclopropyl-3-(3-(((2′-fluoro-2-(1-hydroxy-2-methyl-1-(1-methylethyl)propyl)-5′-(methyloxy)-1,1′-biphenyl-4-yl)methyl)oxy)phenyl)butanoic acid or (3S)-4-cyclopropyl-3-(3-(((2′-fluoro-2-(1-hydroxy-2-methyl-1-(1-methylethyl)propyl)-5′-(methyloxy)-1,1′-biphenyl-4-yl)methyl)oxy)phenyl)butanoic acid], for which the EC50 on GPR40 [1] and at GPR40 [2] was 100 to 1000 nM each time.
Consider `COc1ccc(F)c(-c2ccc(COc3cccc(C(CC(=O)O)CC4CC4)c3)cc2CC(C)C)c1` (single isomer, unassigned) [Example 69.21, (3R)-4-Cyclopropyl-3-(3-(((2′-fluoro-5′-(methyloxy)-2-(2-methylpropyl)-1,1′-biphenyl-4-yl)methyl)oxy)phenyl)butanoic acid or (3S)-4-cyclopropyl-3-(3-(((2′-fluoro-5′-(methyloxy)-2-(2-methylpropyl)-1,1′-biphenyl-4-yl)methyl)oxy)phenyl)butanoic acid], for which the values for the 50% effective concentration (EC50) on GPR40 [1] and on GPR40 [2] were 10 to 100 nM and 100 to 1000 nM, respectively.
With `COc1ccc(F)c(-c2ccc(COc3cccc(C(CC(=O)O)CC4CC4)c3)cc2C(C)C(C)(C)C)c1` (single isomer, unassigned) [Example 69.22], the EC50 at GPR40 [1] was below 10 nM; at GPR40 [2], 100 to 1000 nM.
Taken in the same sequence, the figures for `COCCO[C@H](c1cc(COc2cccc([C@@H](CC(=O)O)CC3CC3)c2)ccc1-c1cc(OC)ccc1F)C(C)(C)C` (single isomer, unassigned) [Example 69.23] were below 10 nM and 10 to 100 nM.
In the case of `COc1ccc(F)c(-c2ccc(COc3cccc([C@@H](CC(=O)O)CC4CC4)c3)cc2SC(C)C)c1` (single isomer, unassigned) [Example 69.24, (R)-4-Cyclopropyl-3-[3-(2′-fluoro-2-isopropylsulfanyl-5′-methoxy-biphenyl-4-ylmethoxy)-phenyl]-butyric acid or (S)-4-cyclopropyl-3-[3-(2′-fluoro-2-isopropylsulfanyl-5′-methoxy-biphenyl-4-ylmethoxy)-phenyl]-butyric acid], the EC50 on GPR40 [1] was 10 to 100 nM; on GPR40 [2], 100 to 1000 nM.
`COc1ccc(F)c(-c2ccc(COc3cccc(C(CC(=O)O)CC4CC4)c3)cc2N2CCCCC2)c1` (single isomer, unassigned) [Example 69.28, (3R)-4-Cyclopropyl-3-(3-(((2′-fluoro-5′-(methyloxy)-2-(1-piperidinyl)-1,1′-biphenyl-4-yl)methyl)oxy)phenyl)butanoic acid or (3S)-4-cyclopropyl-3-(3-(((2′-fluoro-5′-(methyloxy)-2-(1-piperidinyl)-1,1′-biphenyl-4-yl)methyl)oxy)phenyl)butanoic acid]: the EC50 at GPR40 [1] was 10 to 100 nM; at GPR40 [2], 100 to 1000 nM.

The values are drawn from patent US8030354B2, “Substituted biphenyl GPR40 modulators” (Amgen Inc., priority 2007, dated 2011).
